Source: patent publication US9573895B2, “Tetracycline compounds” (Tetraphase Pharmaceuticals, Inc., priority 2012, dated 2017)
In brackets after ≈: the same amount, converted by molar mass. Read-outs that look alike come from different tables or passages of the source.

Experiments:
Type in all cases: cell-based
[1] = system: Pseudomonas aeruginosa PA1145 (Strain used in murine pneumonia model); experiment: MIC assay PA1145; details: control compounds, numeric
[2] = system: Pseudomonas aeruginosa PA556 (Multiple-Mex efflux pump knockout strain)
[3] = system: Klebsiella pneumoniae KP153 (Tetracycline-resistant, tet(A), MDR, ESBL+); experiment: MIC assay KP153; details: Table 5
KP194 7E+05 = experiment: MIC assay KP194; details: Table 5
Description: The assays were run as follows.

[4] = system: Stenotrophomonas maltophilia SM256 (Cystic fibrosis isolate, MDR); experiment: MIC assay SM256
[5] = system: Klebsiella pneumoniae KP457 (2009 ESBL+, CTX-M, OXA); experiment: MIC assay KP457
[6] = system: Proteus mirabilis PM385 (Urine ESBL+ isolate); experiment: MIC assay PM385
[7] = system: Escherichia coli EC155 (Tetracycline-resistant, tet(A))
[8] = system: Pseudomonas aeruginosa PA555 (ATCC BAA-47, wild type strain PAO1); experiment: MIC assay PA555
[9] = system: Acinetobacter baumannii AB250 (Cystic fibrosis isolate, MDR); experiment: MIC assay AB250
[10] = system: Streptococcus pneumoniae SP106 (ATCC 49619); experiment: MIC assay SP106; details: Table 5
[11] = system: Enterococcus faecium EF404 (Blood isolate (US) tet(M)); experiment: MIC assay EF404
[12] = system: Enterococcus faecalis EF327 (Wound isolate (US) tet(M)); experiment: MIC assay EF327
[13] = system: Streptococcus pneumoniae SP160 (Tetracycline-resistant, tet(M)); experiment: MIC assay SP160
[14] = system: Staphylococcus aureus SA161 (HA-MRSA, tetracycline-resistant, tet(M)); experiment: MIC assay SA161
[15] = system: Enterobacter cloacae EC603 (Urine isolate (Spain)); experiment: MIC assay EC603
[16] = system: Escherichia coli EC107 (ATCC 25922); experiment: MIC assay EC107
[17] = system: Enterococcus faecalis EF159 (Tetracycline-resistant, tet(M)); experiment: MIC assay EF159; details: Table 5
[18] = system: Burkholderia cenocepacia BC240 (Cystic fibrosis isolate, MDR); experiment: MIC assay BC240

Row | Structure (SMILES) | MIC PA556 ([2]; Table 5) [µg/mL] | MIC PA556 ([2]; Table 6) [µg/mL] | MIC PA556 ([2]; Table 7) [µg/mL] | MIC KP153 tetA [3] [µg/mL] | MIC (KP194 7E+05) [µg/mL] | MIC SM256 ([4]; Table 5) [µg/mL] | MIC SM256 ([4]; Table 6) [µg/mL] | MIC SM256 ([4]; Table 7) [µg/mL] | MIC KP457 CTX-M-15 ([5]; Table 6) [µg/mL] | MIC KP457 CTX-M-15 ([5]; Table 7) [µg/mL] | MIC KP457 CTX-M-15 ([5]; control compounds, numeric) [µg/mL] | MIC PM385 ([6]; Table 7) [µg/mL] | MIC PM385 ([6]; control compounds, numeric) [µg/mL] | MIC EC155 tetA ([7]; Table 5) [µg/mL] | MIC EC155 tetA ([7]; Table 6) [µg/mL] | MIC PA555 BAA-47 ([8]; control compounds, numeric) [µg/mL] | MIC AB250 ([9]; Table 5) [µg/mL] | MIC AB250 ([9]; Table 6) [µg/mL] | MIC AB250 ([9]; Table 7) [µg/mL] | MIC SP106 49619 [10] [µg/mL] | further results
1 | CN(C)c1cc(NC(=O)CNC(C)(C)C)c(O)c2c1C[C@H]1C[C@H]3[C@H](N(C)C)C(O)=C(C(N)=O)C(=O)[C@@]3(O)C(O)=C1C2=O [Tigecycline, tigecycline] | 0.25 (≈ 0.427 µM) | 0.25 (≈ 0.427 µM) | 0.25 (≈ 0.427 µM) | 1 (≈ 1.71 µM) | 8 (≈ 13.7 µM) | 1 (≈ 1.71 µM) | 1 (≈ 1.71 µM) | 1 (≈ 1.71 µM) | 1 (≈ 1.71 µM) | 1 (≈ 1.71 µM) | 1 (≈ 1.71 µM) | 4 (≈ 6.83 µM) | 4 (≈ 6.83 µM) | 0.5 (≈ 0.854 µM) | 0.5 (≈ 0.854 µM) | 16 (≈ 27.3 µM) | 8 (≈ 13.7 µM) | 8 (≈ 13.7 µM) | 8 (≈ 13.7 µM) | 0.016 (≈ 0.0273 µM) | MIC PA1145 Vivisource [1]: 16 µg/mL (≈ 27.3 µM); MIC EC155 tetA ([7]; Table 7): 0.5 µg/mL (≈ 0.854 µM); MIC EC155 tetA ([7]; control compounds, numeric): 0.5 µg/mL (≈ 0.854 µM); MIC PA555 BAA-47 ([8]; Table 7): 16 µg/mL (≈ 27.3 µM)
2 | CN(C)[C@@H]1C(O)=C(C(N)=O)C(=O)[C@@]2(O)C(O)=C3C(=O)c4c(O)cccc4C[C@H]3C[C@@H]12 [Sancycline, sancycline] | 1 (≈ 2.41 µM) | 1 (≈ 2.41 µM) | 1 (≈ 2.41 µM) | 32 (≈ 77.2 µM) | 32 (≈ 77.2 µM) | 1 (≈ 2.41 µM) | 1 (≈ 2.41 µM) | 1 (≈ 2.41 µM) | 8 (≈ 19.3 µM) | 8 (≈ 19.3 µM) |  | 8 (≈ 19.3 µM) | 8 (≈ 19.3 µM) | 32 (≈ 77.2 µM) | 32 (≈ 77.2 µM) | 32 (≈ 77.2 µM) | 16 (≈ 38.6 µM) | 16 (≈ 38.6 µM) | 16 (≈ 38.6 µM) | 0.25 (≈ 0.603 µM) | MIC ([5]; Klebsiella pneumoniae, read-out: MIC KP457 CTX-M-15): 8 µg/mL (≈ 19.3 µM); MIC EC155 tetA ([7]; Table 7): 32 µg/mL (≈ 77.2 µM); MIC EC155 tetA ([7]; control compounds, numeric): 32 µg/mL (≈ 77.2 µM); MIC PA555 BAA-47 ([8]; Table 7): 32 µg/mL (≈ 77.2 µM)
3 | CN(C)c1ccc(O)c2c1C[C@H]1C[C@H]3[C@H](N(C)C)C(O)=C(C(N)=O)C(=O)[C@@]3(O)C(O)=C1C2=O [Minocycline, minocycline] |  |  |  | 8 (≈ 17.5 µM) | 32 (≈ 69.9 µM) | 0.5 (≈ 1.09 µM) | 0.5 (≈ 1.09 µM) | 0.5 (≈ 1.09 µM) | 8 (≈ 17.5 µM) | 8 (≈ 17.5 µM) | 8 (≈ 17.5 µM) | 16 (≈ 35 µM) | 16 (≈ 35 µM) | 8 (≈ 17.5 µM) | 8 (≈ 17.5 µM) | 16 (≈ 35 µM) | 8 (≈ 17.5 µM) | 8 (≈ 17.5 µM) | 8 (≈ 17.5 µM) | 0.015 (≈ 0.0328 µM) | MIC EF404 tetM ([11]; Table 7): 8 µg/mL (≈ 17.5 µM); MIC EF404 tetM ([11]; control compounds, numeric): 8 µg/mL (≈ 17.5 µM); MIC EF327 tetM ([12]; Table 7): 32 µg/mL (≈ 69.9 µM); MIC EF327 tetM ([12]; control compounds, numeric): 32 µg/mL (≈ 69.9 µM); MIC SP160 tetM ([13]; Table 4): 2 µg/mL (≈ 4.37 µM); MIC SP160 tetM ([13]; Table 5): 2 µg/mL (≈ 4.37 µM); MIC SP160 tetM ([13]; Table 7): 2 µg/mL (≈ 4.37 µM); MIC SP160 tetM ([13]; control compounds, numeric): 2 µg/mL (≈ 4.37 µM); MIC SA161 tetM ([14]; Table 5): 8 µg/mL (≈ 17.5 µM); MIC SA161 tetM ([14]; Table 6): 8 µg/mL (≈ 17.5 µM); MIC SA161 tetM ([14]; Table 7): 8 µg/mL (≈ 17.5 µM); MIC SA161 tetM ([14]; control compounds, numeric): 8 µg/mL (≈ 17.5 µM); MIC EC603 tetA ([15]; Table 6): 33 µg/mL (≈ 72.1 µM); MIC EC603 tetA ([15]; Table 7): 33 µg/mL (≈ 72.1 µM); MIC EC107 25922 ([16]; Table 5): 0.5 µg/mL (≈ 1.09 µM); MIC EC107 25922 ([16]; control compounds, numeric): 0.5 µg/mL (≈ 1.09 µM); MIC EF159 tetM [17]: 16 µg/mL (≈ 35 µM); MIC BC240 ([18]; Table 5): 8 µg/mL (≈ 17.5 µM); MIC BC240 ([18]; Table 6): 8 µg/mL (≈ 17.5 µM); MIC BC240 ([18]; Table 7): 8 µg/mL (≈ 17.5 µM)
